Experimental data taken from patent US20220221458A1, “NOROVIRUS-BINDING PEPTIDE” (Kao Corporation, priority 2019, published 2022).
Ends that are not written are not given here.

Columns and labels:
[1] = test system: norovirus VLPs (GII.4, GII.3, GII.17); experiment: In vitro selection by cDNA display against VLPs with appearance frequency analysis of sequences; conditions: count among peptide aptamer sequences obtained after in vitro selection cycles (7 cycles GII.4, 5 cycles GII.3 and GII.17)
Protocol: The constructed cDNA display and VLPs were incubated in 100 μL of a dialysis selection buffer (20 mM HEPES (pH 7.4), 150 mM NaCl, and 0.05% s Tween 20) at the concentrations shown in Table 9 below at 25° C. for 30 minutes. Subsequently, the resultant was diluted to 1 mL with the dialysis selection buffer, and was put in Float-A-Lyzer G2 Dialysis Device CE, 1000kD MWCO (manufactured by Spectrum Laboratories, Inc.) and was dialyzed with 1 L of the dialysis selection buffer as the external solution at 25° C. During the dialysis, the external solution was replaced with new one 3 times every 2 hours, and the dialysis was performed overnight (for 8 hours) after the 4th replacement. The dialysis product was concentrated with Amicon Ultra 100K (manufactured by Merck Millipore S.A.S.) at 14,000×g for 5 minutes.
To an immunoplate (C-BOTTOM, CLEAR, MICROLON (registered trademark), HIGH BINDING, manufactured by Greiner Bio-One), 100 μL of 3 μg/mL GII.3 or GII.17 VLP solution was added and immobilization was performed at 4° C. overnight. Subsequently, the solution was discarded, and 200 μL of a blocking agent (EMD Millipore™ Blok™ NSB Blocking agents, Thermo Fisher Scientific) was added, followed by gently stirring at room temperature for 2 hours for blocking. On this occasion, wells not immobilizing the VLP were also subjected to similar blocking to be used in preselection.
The solution was discarded from the wells, the wells were washed with 200 μL of a wash buffer (10 mM Hepes (pH 7.4), 150 mM NaCl, and 0.05% Tween 20) three times, and 100 μL of cDNA display (constructed from 1.5 pmol of mRNA-linker) was then put in the wells not immobilizing the VLP, followed by gently stirring at room temperature for 30 minutes to perform preselection. Subsequently, the supernatant containing cDNA display that had not bound to the blocking agent was put in the wells immobilizing the VLP, followed by gently stirring at room temperature for 30 minutes to be bound to the VLP. The supernatant was discarded, washing with 100 μL of the wash buffer was performed four times, and 100 μL of a 5′ SDS solution was then added, followed by incubation at 50° C. for 15 minutes to elute the bound cDNA display.
Subsequently, the VLP-cDNA display complex obtained above was diluted to 100 μL with a dialysis selection buffer, and 10 μL of a coprecipitating agent (Quick-Precip Plus Solution, manufactured by EdgeBio) and 220 μL of 100% ethanol were added, followed by centrifugation at 20,000×g for 5 minutes. Subsequently, the supernatant was discarded, and 1 mL of 70, ethanol was added for rinsing. […] The PCR program was (a) 98° C. for 2 minutes, (b) 95° C. for 20 seconds, (c) 69° C. for 20 seconds, (d) 72° C. for 20 seconds (steps (b) to (d) were performed 25 cycles), and (e) 72° C. for 1 minute.
After the in vitro selection cycle (7 cycles for GII.4 and 5 cycles for GII.3 and GII.17 based on the libraries of 7 cycles obtained by GII.4 dialysis), a sequence library was prepared by the following method, and the sequence information was analyzed. The preparation of the sequence library and the sequencing were performed according to the 16S Metagenomic Sequencing Library Preparation protocol (manufactured by Illumina, Inc.).
The Fastq file of the obtained sequence was converted to a Fasta file, all of the obtained sequences were simultaneously translated from the first base of the start codon (ATG) at position 115 to the third base of the cysteine codon (TGC) at position 156 of the library sequence (SEQ ID NO: 279) using software MEGA.

[2] = biological target: GII.3 VLP (norovirus GII.3 TCH strain); experiment: BLI (BLItz), biotin peptide on SA chip, GII.3 VLP at 1 and 0.1 mg/mL

Molecule | Appearance Frequency [1] | other results
92 (TGHIVW; Designed peptide) [compound 92] | 8 | 
58 (KFSHRK; Designed peptide) [compound 58] | 9 | 
176 (FQYAHW; Designed peptide) [compound 176] | 6 | 
157 (VRPSNG; Designed peptide) [compound 157] | 7 | 
168 (DKVCKN; Designed peptide) [compound 168] | 6 | 
18 (SRWCLS; Designed peptide) [compound 18] | 13 | 
221 (NRVKPR; Designed peptide) [compound 221] | 6 | 
206 (KSMNNG; Designed peptide) [compound 206] | 6 | 
46 (RVSLYD; Designed peptide) [compound 46] | 10 | 
245 (RYMPVA; Designed peptide) [compound 245] | 6 | 
207 (LHHSSY; Designed peptide) [compound 207] | 6 | 
26 (TWDLTL; Designed peptide) [compound 26] | 12 | 
194 (HQTGRL; Designed peptide) [compound 194] | 6 | 
117 (HHYRGL; Designed peptide) [compound 117] | 7 | 
188 (HFRRRV; Designed peptide) [compound 188] | 6 | 
133 (NKYSHR; Designed peptide) [compound 133] | 7 | 
83 (KTRAIN; Designed peptide) [compound 83] | 8 | 
224 (PDRFCA; Designed peptide) [compound 224] | 6 | 
59 (MAWIGS; Designed peptide) [compound 59] | 9 | 
76 (GGSHST; Designed peptide) [compound 76] | 8 | 
16 (LSKHSR; Designed peptide) [compound 16] | 13 | 
219 (NKSFHR; Designed peptide) [compound 219] | 6 | 
253 (SSKSFA; Designed peptide) [compound 253] | 6 | 
200 (IHSPQK; Designed peptide) [compound 200] | 6 | 

Molecule | Appearance Frequency [1] | other results
183 (GMDLRS; Designed peptide) [compound 183] | 6 | 
114 (GSLDIM; Designed peptide) [compound 114] | 7 | 
160 (WAGHRH; Designed peptide) [compound 160] | 7 | 
269 (YYPDHP; Designed peptide) [compound 269] | 6 | 
44 (QSSKKF; Designed peptide) [compound 44] | 10 | 
145 (RRRTFH; Designed peptide) [compound 145] | 7 | 
124 (KVHGST; Designed peptide) [compound 124] | 7 | 
84 (LASSGH; Designed peptide) [compound 84] | 8 | 
43 (HIHGRE; Designed peptide) [compound 43] | 10 | 
237 (RKCIDR; Designed peptide) [compound 237] | 6 | 
110 (GFAISR; Designed peptide) [compound 110] | 7 | 
201 (IKAHTR; Designed peptide) [compound 201] | 6 | 
187 (HDYVSE; Designed peptide) [compound 187] | 6 | 
71 (CNLIAK; Designed peptide) [compound 71] | 8 | 
195 (HSSLVT; Designed peptide) [compound 195] | 6 | 
239 (RLRDPQ; Designed peptide) [compound 239] | 6 | 
208 (LLGKPV; Designed peptide) [compound 208] | 6 | 
35 (TKRQNL; Designed peptide) [compound 35] | 11 | 
15 (SIGVDR; Designed peptide) [compound 15] | 14 | 
265 (WVFVKH; Designed peptide) [compound 265] | 6 | 
227 (QFSQLG; Designed peptide) [compound 227] | 6 | 
107 (FRECLY; Designed peptide) [compound 107] | 7 | 
12 (LNWSRS; Designed peptide) [compound 12] | 15 | 
205 (KHAWDL; Designed peptide) [compound 205] | 6 | 

Molecule | Appearance Frequency [1] | other results
112 (GHFDAR; Designed peptide) [compound 112] | 7 | 
33 (SRHCVP; Designed peptide) [compound 33] | 11 | 
257 (TNRTVS; Designed peptide) [compound 257] | 6 | 
115 (GVNSGH; Designed peptide) [compound 115] | 7 | 
128 (LWNMYD; Designed peptide) [compound 128] | 7 | 
80 (HICIRR; Designed peptide) [compound 80] | 8 | 
134 (NPKAHL; Designed peptide) [compound 134] | 7 | 
165 (ARNHGS; Designed peptide) [compound 165] | 6 | 
129 (MHSSLS; Designed peptide) [compound 129] | 7 | 
233 (RGTMWL; Designed peptide) [compound 233] | 6 | 
199 (IGRTFH; Designed peptide) [compound 199] | 6 | 
163 (AFDGLG; Designed peptide) [compound 163] | 6 | 
260 (VMSPCN; Designed peptide) [compound 260] | 6 | 
152 (SWPFCT; Designed peptide) [compound 152] | 7 | 
106 (FPTGTT; Designed peptide) [compound 106] | 7 | 
167 (CLHFAL; Designed peptide) [compound 167] | 6 | 
136 (PVLHLH; Designed peptide) [compound 136] | 7 | 
232 (RGHPST; Designed peptide) [compound 232] | 6 | 
254 (STEFAR; Designed peptide) [compound 254] | 6 | 
169 (DRWGSK; Designed peptide) [compound 169] | 6 | 
252 (SRSHWG; Designed peptide) [compound 252] | 6 | 
60 (NTHRHS; Designed peptide) [compound 60] | 9 | 
GRRYYI (also: spacer with Trp and biotin, letters and position not given here) [peptide of SEQ ID NO: 1, synthesized, with spacer sequence and biotin] |  | Kd [2]: 6.01 µM; koff [2]: 0.0546 s⁻¹; kon [2]: 9070 M⁻¹ s⁻¹
